Data reported in patent publication US20130030007A1, “Obesity Small Molecules” (AKRON MOLECULES GMBH, priority 2010, published 2013).
Non-standard residues stand in square brackets, D forms with d. Residues, ends and D or L forms follow the SMILES beside them. No end group written: not given here. pGlu = O=C1CC[C@@H](C(=O)O)N1; Thz = O=C(O)[C@@H]1CSCN1

System: human ortholog of Drosophila obesity gene
Assay: not given
Set-up: key: O: Obesity - obesity pathway interaction; B: validated binding partner
Conditions: cited from earlier work

| Compound | Type: Type of interaction |
| --- | --- |
| CO[C@H](C(=O)[C@@H](O)[C@@H](C)O)[C@@H]1Cc2cc3cc(O[C@H]4C[C@@H](O[C@H]5C[C@@H](O)[C@H](O)[C@@H](C)O5)[C@H](O)[C@@H](C)O4)c(C)c(O)c3c(O)c2C(=O)[C@H]1O[C@H]1C[C@@H](O[C@H]2C[C@@H](O[C@H]3C[C@](C)(O)[C@H](O)[C@@H](C)O3)[C@@H](O)[C@@H](C)O2)[C@H](O)[C@@H](C)O1 [mithramycin A] | B |
| CNCc1nnc2n1-c1ccc(Cl)cc1C(c1ccccc1)=NC2 [mono-N-demethyladinazolam] | O |
| C[C@@H]1C[C@H]2O[C@@H]2/C=C\C=C\C(=O)Cc2cc(O)cc(O)c2C(=O)O1 [monocillin I] | O |
| CN1CC[C@]23c4c5ccc(O[C@@H]6O[C@H](C(=O)O)[C@@H](O)[C@H](O)[C@H]6O)c4O[C@H]2[C@@H](O)C=C[C@H]3[C@H]1C5 [morphine-3-glucuronide] | B |
| CC1CC(=O)NN=C1c1cc(-n2ccnc2)cs1 (stereo not shown) [motapizone] | O |
| Oc1ccc2c3c1O[C@H]1c4[nH]c5ccccc5c4C[C@@]4(O)[C@@H](C2)N(CC2CC2)CC[C@]314 [naltrindole] | B |
| CO[C@H]1CC[C@@H](O[C@H]2C[C@H]([C@]3(C)CC[C@]4(C[C@H](O)[C@@H](C)[C@@H]([C@@H](C)/C=C(\C)C(=O)[C@H](C)C[C@H](C)C(=O)O)O4)O3)O[C@]3(O[C@@H]([C@H]4O[C@@](O)(CO)[C@H](C)C[C@@H]4C)C[C@@H]3C)[C@@H]2C)O[C@@H]1C [nanchangmycin] | O |
| [NH2][Pt]1([NH2])[O]CC(=O)[O]1 [nedaplatin] | O |
| O=C1OC(=O)[C@H]2[C@@H]1[C@@H]1CC[C@H]2O1 [norcantharidin] | B |
| O=C1NC(=O)C2C3C=CC(C3)C12 (stereo not shown) [noreximide] | O |
| Oc1ccc(CC2NCCc3cc(O)c(O)cc32)cc1O (stereo not shown) [norlaudanosoline] | B |
| C[C@@H]1Cc2c(Cl)cc(C(=O)N[C@@H](Cc3ccccc3)C(=O)O)c(O)c2C(=O)O1 [ochratoxin A] | O |
| O=C(O[C@H]1[C@@H]2OC(=O)c3cc(O)c(O)c(O)c3-c3c4cc(c(O)c3O)Oc3c(cc(O)c(O)c3O)C(=O)O[C@H]3C(O)O[C@@H]5COC(=O)c6cc(O)c(O)c(O)c6-c6c(cc(c(O)c6O)Oc6c(cc(O)c(O)c6O)C(=O)O[C@H]1C(O)O[C@@H]2COC4=O)C(=O)O[C@H]5[C@@H]3OC(=O)c1cc(O)c(O)c(O)c1)c1cc(O)c(O)c(O)c1 (stereo partly shown) [oenothein B] | B |
| CO[C@H]1C[C@H](O[C@H]2CC[C@@]3(C)[C@H](CC[C@@H]4[C@@H]3CC[C@]3(C)[C@@H](C5=CC(=O)OC5)[C@@H](OC(C)=O)C[C@]43O)C2)O[C@@H](C)[C@@H]1O [oleandrin] | B |
| CCCCCCCC/C=C\CCCCCCCC(N)=O [oleylamide] | B |
| COc1ccc(-c2coc3cc(O)cc(O)c3c2=O)cc1 [olmelin] | B |
| CNC(=N)NCCC[C@H](N)C(=O)O [omega-N-Methylarginine] | O |
| O=C(O)C(=O)O.[NH-][C@@H]1CCCC[C@H]1[NH-].[Pt+2] [oxaliplatin] | O |
| CCCCC[C@H](O)/C=C/[C@H]1C=CC(=O)[C@@H]1CCCCCCC(=O)O [prostaglandin A1] | O |

| Compound | Type: Type of interaction |
| --- | --- |
| CCCCC[C@H](O)/C=C/[C@H]1C(=O)C[C@H](O)[C@@H]1C/C=C\CCCC(=O)O [prostaglandin D2] | B |
| CCCCC[C@H](O)/C=C/[C@H]1[C@H](O)CC(=O)[C@@H]1CCCCCCC(=O)O [prostaglandin E1] | O |
| CCCCC[C@H](O)/C=C/[C@@H]1[C@@H](C/C=C\CCCC(=O)O)[C@@H](O)C[C@H]1O [prostaglandin F2alpha] | O |
| CCCCC[C@H](O)/C=C/[C@@H]1[C@@H](C/C=C\CCCC(=O)O)[C@@H]2C[C@H]1OO2 [prostaglandin H2] | O |
| COC(=O)C1=CC[C@@]23CC[C@@H]([C@@](C)(/C=C/C=C(\C)C(=O)O)OC2=O)[C@@]3(OC(C)=O)CC1 [pseudolaric acid B] | O |
| C[C@H](N[C@@H](CCc1ccccc1)C(=O)O)C(=O)N1[C@H](C(=O)O)C[C@@H]2CCC[C@@H]21 [ramiprilat] | B |
| LY 303511 | O |
| mahanine | B |
| maraviroc | B |
| melitten | O |
| milbemycin | O |
| neodymium | O |
| obovatol | B |
| pegvisomant | O |
| pentosidine | B |
| pheophorbide a | O |
| pifithrin | B |
| pindobind | O |
| prostaglandin J2 | O |

Same assay, conditions: interaction of the small molecule with the human ortholog(s) / Drosophila gene(s) listed in the same table line; cited from earlier work

| Compound | Type: Type of interaction |
| --- | --- |
| CN(C)c1cccc2c(S(=O)(=O)NCCCCCN)cccc12 [monodansylcadaverine] | O |
| CCOc1cc(N)c(Cl)cc1C(=O)NCC1CN(Cc2ccc(F)cc2)CCO1 (stereo not shown) [mosapride] | O |
| CC(C)[C@H]1CC[C@H](C(=O)N[C@H](Cc2ccccc2)C(=O)O)CC1 [nateglinide] | O |
| CNc1cc(OC)c(C(=O)NC2CCN(Cc3ccccc3)C2C)cc1Cl (stereo not shown) [nemonapride] | O |
| O=C1NC(=O)C(Cc2ccc3cc(OCc4ccccc4F)ccc3c2)S1 (stereo not shown) [netoglitazone] | B |
| CC(CNC(=O)c1cccnc1)NC(=O)c1cccnc1 (stereo not shown) [nicaraven] | O |
| NCCC(Oc1ccc(C(F)(F)F)cc1)c1ccccc1 (stereo not shown) [norfluoxetine] | B |
| COc1ccc(CCNCCCC(C#N)(c2ccc(OC)c(OC)c2)C(C)C)cc1OC (stereo not shown) [norverapamil] | O |
| CO[C@@H]1[C@@H](OC(N)=O)[C@@H](O)[C@H](Oc2ccc3c(O)c(NC(=O)c4ccc(O)c(CC=C(C)C)c4)c(=O)oc3c2C)OC1(C)C [novobiocin] | O |
| O=C(N[C@H]1CCS[C@H]2CCC[C@@H](C(=O)O)N2C1=O)[C@@H](S)Cc1ccccc1 [omapatrilat] | O |
| COc1ccc2nc(S(=O)(=O)Cc3ncc(C)c(OC)c3C)[nH]c2c1 [omeprazole sulfone] | B |
| CO[C@@H]1C(=O)CC[C@]2(CO2)[C@@]1(O)[C@@]1(C)O[C@@H]1CC=C(C)C [ovalicin] | B |
| O=c1[nH]c2ccccc2n1CCCN1CCN(C(c2ccccc2)c2ccccc2)CC1 [oxatomide] | B |
| NC(=O)N1c2ccccc2CC(=O)c2ccccc21 [oxcarbazepine] | O |
| O=C1CCC[C@@H]2[C@H]3CCC[N+]4([O-])CCC[C@@H](CN12)[C@@H]34 (stereo partly shown) [oxymatrine] | B |
| Nc1ccc(C(=O)NCC(=O)O)cc1 [p-Aminohippuric Acid] | B |

| Compound | Type: Type of interaction |
| --- | --- |
| NCCC(O)(P(=O)(O)O)P(=O)(O)O [pamidronate] | B |
| CC1(C)CCC[C@](C)([C@H]2CC[C@]3(C)[C@@H]2[C@H](O)C[C@@H]2[C@@]4(C)CC[C@H](O)C(C)(C)[C@@H]4CC[C@]23C)O1 [panaxadiol] | B |
| c1ccc2c(c1)ccc1ccccc12 [phenanthrene] | O |
| COc1cc([C@@H]2c3cc4c(cc3[C@H](O)[C@H]3COC(=O)[C@@H]23)OCO4)cc(OC)c1OC [picropodophyllin] | B |
| O=C1CC[C@@H](C(=O)N2CSC[C@H]2C(=O)O)N1 [pidotimod] ([pGlu]-[Thz]-OH) | O |
| CC1=CC(=O)c2c(O)cccc2C1=O [plumbagin] | B |
| CC[C@@H]([C@H](C)O)n1ncn(-c2ccc(N3CCN(c4ccc(OC[C@@H]5CO[C@@](Cn6cncn6)(c6ccc(F)cc6F)C5)cc4)CC3)cc2)c1=O [posaconazole] | B |
| CC(=O)O[C@@]12C[C@@H](C)[C@@]3(O)[C@@H](C=C(CO)C[C@]4(O)C(=O)C(C)=C[C@@H]34)[C@@H]1C2(C)C [prostratin] | O |
| COCCCN1CCC(NC(=O)c2cc(Cl)c(N)c3c2OCC3)CC1 [prucalopride] | O |
| O=c1c(-c2ccc(O)cc2)coc2c([C@@H]3O[C@H](CO)[C@@H](O)[C@H](O)[C@H]3O)c(O)ccc12 [puerarin] | B |
| OCCOCCN1CCN(C2=Nc3ccccc3Sc3ccccc32)CC1 [quetiapine] | O |
| COC1=C(CC(C)OC(=O)c2cc(Cl)c(O)cc2O)C(=O)C(NC=O)=CC1=O (stereo not shown) [radester] | O |
| Pyrethrins | O |
| neuromedin C (GNHWAVGHLM; ends and bridges not checked; UniProt P07492 41-50, looked up) | O |
| omalizumab | B |

System: human ortholog of Drosophila obesity gene
Assay: Table 1: type of interaction of small molecule with therapeutic target gene
Set-up: key: O: Obesity - obesity pathway interaction; B: validated binding partner
Conditions: not given

| Compound | Type: Type of interaction |
| --- | --- |
| COc1ccc(-c2cc(=O)c3c(OC)c(OC)c(OC)c(OC)c3o2)cc1 [Tangeretin] | B |
